“Also recorded” adds a separate entry of the source.
What was measured:
[1] = molecular target: T1, digitalis-sensitive (Na++K+)-ATPase purified from dog kidney (Canis lupus familiaris, UniProt P50997); assay: (Na++K+)-ATPase activity, digitalis-sensitive enzyme; format: biochemical; conditions: dog enzyme 16 nM; 24-400 nM
T1 construct: Highly purified dog kidney (Na^++K^+)-ATPase was a gift from Dr. Jack Kyte; tissue gift from Dr. Jack Kyte; host or cells: dog kidney
Method: The enzymatic activity was determined as described previously (Kyte J., et al., (1987) Biochemistry, 26:8350-8360) with modifications. Briefly, purified rat or dog (Na^++K^+)-ATPase was incubated with or without Jianye or ouabain in the presence of 100 mM Na^+ for 30 min at room temperature. The reaction was initiated by adding 3 mM MgATP and 20 mM K^+ in a final volume of 0.25 ml at 37° C. for 30 min and terminated by adding 0.75 ml quench solution and 0.025 ml developer. The color was allowed to develop for 30 min at room temperature and the concentration of phosphate was then determined at 700 nm using a spectrophotometer.
To investigate whether the binding of Jianye affects (Na^++K^+)-ATPase activity, we measured (Na^++K^+)-ATPase (100 nM) activity in the presence of 100 mM Na^+, 20 mM K^+, 3 mM MgATP, and various concentrations of Jianye or ouabain. […] To exclude the possibility that the inability of Jianye to inhibit enzymatic activity may be due to the digitalis-resistant nature of rat (Na^++K^+)-ATPase (FIG. 3), we tested the effect of Jianye on the digitalis-sensitive (Na^++K^+)-ATPase (16 nM) purified from dog kidney.

[2] = molecular target: T2, digitalis-resistant rat (Na++K+)-ATPase (Rattus norvegicus, UniProt P06685); assay: (Na++K+)-ATPase activity, digitalis-resistant enzyme; format: biochemical; conditions: enzyme 100 nM; 24-400 nM test agent; 100 mM Na+, 20 mM K+, 3 mM MgATP
T2 construct: the SL vesicles (4.4 mg/ml) were titrated with 0.58 mg/ml of SDS in the presence of 2 mM ATP; from tissue; host or cells: rat heart muscle; enzyme purified from SL vesicles by SDS titration and sucrose step gradient
Method: (§1) Rat cardiac sarcolemmal (SL) vesicles were isolated from rat heart muscle by sucrose flotation method. The vesicles were tested with saponin and were predominately right-side-out in orientation. (Na^++K^+)-ATPase was purified as described previously (Kyte, J. (1971) Biochemistry, 246:4157-4165). Briefly, the SL vesicles (4.4 mg/ml) were titrated with 0.58 mg/ml of SDS in the presence of 2 mM ATP at 20° C. for 30 min. The SDS titrated fractions were then loaded on the top of a sucrose (W/W) step gradient constructed with 10 ml of 37.3% (bottom step), 20 ml of 28.8%, and 10 ml of 15% in a Ti 60 tube, and centrifuged at 40,000 rpm for 90 min. The fractions that contain (Na^++K^+)-ATPase (between 37.3 and 28.8% on the sucrose gradient) were carefully collected and sedimented at 40,000 rpm for 60 minutes. […]
The enzymatic activity was determined as described previously (Kyte J., et al., (1987) Biochemistry, 26:8350-8360) with modifications. […] The color was allowed to develop for 30 min at room temperature and the concentration of phosphate was then determined at 700 nm using a spectrophotometer.
To investigate whether the binding of Jianye affects (Na^++K^+)-ATPase activity, we measured (Na^++K^+)-ATPase (100 nM) activity in the presence of 100 mM Na^+, 20 mM K^+, 3 mM MgATP, and various concentrations of Jianye or ouabain. […]

(Na++K+)-ATPase = assay: [3H]ouabain binding to cardiac sarcolemmal vesicles; design: species or system rat; conditions: PB added to Jianye prior to [3H]ouabain
Method: as §1, with “minutes. The purified enzyme was resuspended in a sucrose (250 mM)/histidinium chloride (30 mM) buffer, pH 7.2, quick-frozen in liquid nitrogen and stored at −70° C.” for “minutes.”
Cardiac SL vesicles (3 mg/ml) were incubated with or without various concentrations of Jianye antibody for 30 minutes at room temperature in a medium containing 1 mM MgATP, 100 mM NaCl, and 10 mM Tris/HCl buffer (ph 7.4). […] An aliquot (20 or 50 Ml) was taken from each sample and radioactivity determined using a β-scintillation counter. The percent of [^3H]ouabain binding to the enzyme was then calculated. […]

rat ventricular myocytes = assay: Cell contraction and confocal Ca2+ transients in single ventricular myocytes; format: cell-based; conditions: PB (PB95, 20 μM) mixed with Jianye prior to administration
Method: Ventricular cardiac myocytes were isolated from adult Sprague-Dawley rats (2-3 months old; weight 225-300 g) using standard enzymatic techniques. Briefly, following anesthesia (sodium pentobarbital, 100 mg/kg), the heart was quickly removed from the chest and aortic perfused at constant pressure (100 cmH2O) at 37° C. for 3 minutes with a Ca^2+-free bicarbonate-based buffer containing 120 mM NaCl, 5.4 mM MgSO4, 1.2 mM NaH2PO4, 5.6 mM glucose, 20mM NaHCO3, and 5 mM taurine, in the presence of O2 (95%)-CO2 (5%). The enzymatic digestion was initiated by adding collagenase (Worthington Type II, 1 mg/ml) to the perfusion solution. Calcium (50 μM) was added to the enzyme solution when the heart became swollen. […]
Myocytes were placed on an inverted microscope (Zeiss model IM-35), superfused with HEPES-buffered solution at a flow rate of 1.8 ml/min, and electrically stimulated at 0.5 Hz at 23° C. Cell length was monitored from the bright field image (650 nm to 750 nm red light illumination) by an optical edge-tracking method using a photodiode array (model 1024 SAQ, Reticon) with a 3 ms time resolution. The contraction amplitude was measured as the percentage of shortening of cell length. […]
We next determined whether the binding of Jianye to the (Na^++K^+)-ATPase affects cardiac contractility. […]

C[C@@H]1O[C@@H](O[C@H]2C[C@@H](O)[C@]3(CO)[C@H]4[C@H](O)C[C@]5(C)[C@@H](C6=CC(=O)OC6)CC[C@]5(O)[C@@H]4CC[C@]3(O)C2)[C@H](O)[C@H](O)[C@H]1O [ouabain]
effect on dog (Na++K+)-ATPase enzymatic activity [1]: reduced the enzymatic activity
inhibition of ATP hydrolysis [1]: up to 47%
inhibition of rat (Na++K+)-ATPase activity [2]: did not inactivate

KRQPRNPKTDKLVNE [PB]
[3H]ouabain labeling when Jianye is saturated by peptide blocker (effect on Jianye antagonism) ((Na++K+)-ATPase): not affected; also recorded: eliminated this antagonist effect
blocking of Jianye-induced increases in Ca2+ transients and contraction (rat ventricular myocytes): largely abolished; also recorded: completely abolished
blocking of Jianye-induced increases in Ca2+ transients and contraction (rat ventricular myocytes; listed as PB95): largely impeded

Reference: patent US8496929B2, “Inotropic effects of antibodies on cardiac contraction” (priority 2002, dated 2013)
